Patent publication US9738660B2, “Selective inhibitors for protein kinases and pharmaceutical composition and use thereof” (National Chiao Tung University, priority 2014, dated 2017)
Where two headings read alike, the source gives them in different places.

How the values were obtained:
Assay in all cases: Kinase Profiler, residual kinase activity
Assay type in all cases: biochemical
PDPK1 = target: T1, PDPK1 (Homo sapiens, UniProt O15530); settings: read-out: percentage of the remaining kinase activity
T1 sequence (O15530 1-556): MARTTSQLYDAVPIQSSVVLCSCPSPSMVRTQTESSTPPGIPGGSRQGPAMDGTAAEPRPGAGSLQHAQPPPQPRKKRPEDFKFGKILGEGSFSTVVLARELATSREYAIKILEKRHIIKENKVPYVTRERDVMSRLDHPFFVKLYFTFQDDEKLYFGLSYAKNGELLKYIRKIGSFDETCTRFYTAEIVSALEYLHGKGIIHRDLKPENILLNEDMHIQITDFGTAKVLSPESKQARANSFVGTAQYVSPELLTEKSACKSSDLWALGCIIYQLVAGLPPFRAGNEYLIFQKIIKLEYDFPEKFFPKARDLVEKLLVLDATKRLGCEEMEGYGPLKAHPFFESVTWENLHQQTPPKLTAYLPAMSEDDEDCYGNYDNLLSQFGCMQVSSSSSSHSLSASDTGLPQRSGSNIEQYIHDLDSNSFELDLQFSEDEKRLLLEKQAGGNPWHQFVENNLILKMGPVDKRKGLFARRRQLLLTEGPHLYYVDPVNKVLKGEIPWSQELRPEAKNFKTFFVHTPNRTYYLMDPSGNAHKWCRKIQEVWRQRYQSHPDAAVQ
Excerpt: (§1) Kinase Profiler services provided by […]. (http://www.reactionbiology.com) were used to analyze the data of the 9 type-S protein kinase inhibitors against the 40 types of protein kinases.

AXL = target: T2, AXL (Homo sapiens, UniProt P30530); settings: read-out: percentage of the remaining kinase activity
T2 construct: purchased Research Biology Corp. (http://www.reactionbiology.com)
T2 sequence (P30530 26-894): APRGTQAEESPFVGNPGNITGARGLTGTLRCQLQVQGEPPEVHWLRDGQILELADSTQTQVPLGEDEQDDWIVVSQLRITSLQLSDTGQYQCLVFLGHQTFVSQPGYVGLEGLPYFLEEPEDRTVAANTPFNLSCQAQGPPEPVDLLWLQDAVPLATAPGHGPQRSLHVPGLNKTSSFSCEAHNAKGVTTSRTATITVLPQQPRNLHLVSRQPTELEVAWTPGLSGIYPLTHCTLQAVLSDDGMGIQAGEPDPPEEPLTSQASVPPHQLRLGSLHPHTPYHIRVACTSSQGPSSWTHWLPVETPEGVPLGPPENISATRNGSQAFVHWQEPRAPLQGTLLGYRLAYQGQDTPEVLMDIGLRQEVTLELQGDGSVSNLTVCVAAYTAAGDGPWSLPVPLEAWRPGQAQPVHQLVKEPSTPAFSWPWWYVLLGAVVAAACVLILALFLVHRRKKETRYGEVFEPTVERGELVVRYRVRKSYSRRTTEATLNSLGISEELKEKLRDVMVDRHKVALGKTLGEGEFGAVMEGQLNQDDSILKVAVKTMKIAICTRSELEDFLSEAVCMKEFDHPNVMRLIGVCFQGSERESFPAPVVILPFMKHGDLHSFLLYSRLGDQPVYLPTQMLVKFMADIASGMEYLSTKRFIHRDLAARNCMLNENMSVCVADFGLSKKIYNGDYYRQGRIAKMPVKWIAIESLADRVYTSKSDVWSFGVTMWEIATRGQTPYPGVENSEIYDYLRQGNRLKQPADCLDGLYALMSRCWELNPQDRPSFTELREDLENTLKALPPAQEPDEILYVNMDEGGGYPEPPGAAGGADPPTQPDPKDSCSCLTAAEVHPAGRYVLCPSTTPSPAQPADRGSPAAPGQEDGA
Excerpt: as §1

STK11 = target: T3, STK11 (Homo sapiens, UniProt Q15831); settings: read-out: percentage of the remaining kinase activity
T3 sequence (Q15831 1-433): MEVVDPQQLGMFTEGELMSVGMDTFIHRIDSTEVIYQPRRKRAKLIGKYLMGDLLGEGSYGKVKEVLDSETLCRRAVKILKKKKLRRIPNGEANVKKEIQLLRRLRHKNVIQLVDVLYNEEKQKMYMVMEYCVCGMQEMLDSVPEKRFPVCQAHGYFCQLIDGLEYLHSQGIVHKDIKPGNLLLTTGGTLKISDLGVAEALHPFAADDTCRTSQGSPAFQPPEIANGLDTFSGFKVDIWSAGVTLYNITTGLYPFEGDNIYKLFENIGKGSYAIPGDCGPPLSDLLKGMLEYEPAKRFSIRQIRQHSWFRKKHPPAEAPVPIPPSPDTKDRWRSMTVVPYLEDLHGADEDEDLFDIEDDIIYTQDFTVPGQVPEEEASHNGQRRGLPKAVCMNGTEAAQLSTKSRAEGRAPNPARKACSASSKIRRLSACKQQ
T3 sequence (Q7RTN6 1-431 partner): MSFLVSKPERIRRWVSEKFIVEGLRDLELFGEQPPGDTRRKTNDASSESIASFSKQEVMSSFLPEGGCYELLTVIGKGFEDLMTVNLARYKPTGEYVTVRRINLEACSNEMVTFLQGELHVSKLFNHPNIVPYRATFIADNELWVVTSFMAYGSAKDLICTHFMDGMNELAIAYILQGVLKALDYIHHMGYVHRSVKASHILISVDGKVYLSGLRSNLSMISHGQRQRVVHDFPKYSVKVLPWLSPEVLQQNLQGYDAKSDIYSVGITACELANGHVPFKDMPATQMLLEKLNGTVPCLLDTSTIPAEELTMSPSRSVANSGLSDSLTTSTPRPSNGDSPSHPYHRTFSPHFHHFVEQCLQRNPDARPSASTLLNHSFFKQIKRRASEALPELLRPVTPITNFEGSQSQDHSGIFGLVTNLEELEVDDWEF
T3 sequence (Q9Y376 1-341 partner): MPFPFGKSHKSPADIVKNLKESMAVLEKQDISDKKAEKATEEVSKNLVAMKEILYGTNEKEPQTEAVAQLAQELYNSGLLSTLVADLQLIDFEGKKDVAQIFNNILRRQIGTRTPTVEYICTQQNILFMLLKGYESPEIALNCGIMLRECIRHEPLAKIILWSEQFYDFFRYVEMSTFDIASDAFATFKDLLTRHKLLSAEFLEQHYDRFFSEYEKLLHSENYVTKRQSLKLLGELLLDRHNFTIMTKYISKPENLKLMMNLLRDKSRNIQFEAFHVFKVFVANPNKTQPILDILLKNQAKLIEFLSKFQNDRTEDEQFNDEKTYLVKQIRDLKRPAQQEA
Excerpt: as §1

CAMK2D = CAMK2D (Homo sapiens, UniProt Q13557); settings: for remaining activity at 0.5 µM: read-out: percentage of the remaining kinase activity
Excerpt: as §1

AKT1 = AKT1 (Homo sapiens, UniProt P31749); settings: read-out: percentage of the remaining kinase activity
Excerpt: as §1

Chain of AKT1 (P31749 whole entry): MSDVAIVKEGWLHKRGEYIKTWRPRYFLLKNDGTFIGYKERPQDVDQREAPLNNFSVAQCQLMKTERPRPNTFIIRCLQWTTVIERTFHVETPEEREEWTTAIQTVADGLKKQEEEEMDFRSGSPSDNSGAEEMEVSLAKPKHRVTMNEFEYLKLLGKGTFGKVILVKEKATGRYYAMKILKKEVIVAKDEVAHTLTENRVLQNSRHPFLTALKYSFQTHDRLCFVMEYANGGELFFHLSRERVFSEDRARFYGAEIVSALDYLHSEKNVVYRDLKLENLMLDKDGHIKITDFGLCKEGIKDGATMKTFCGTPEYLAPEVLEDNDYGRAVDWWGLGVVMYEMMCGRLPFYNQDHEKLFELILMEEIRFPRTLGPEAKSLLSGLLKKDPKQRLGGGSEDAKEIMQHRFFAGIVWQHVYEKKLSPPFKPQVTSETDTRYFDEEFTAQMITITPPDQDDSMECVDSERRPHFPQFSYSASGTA
Chain of CAMK2D (Q13557 whole entry): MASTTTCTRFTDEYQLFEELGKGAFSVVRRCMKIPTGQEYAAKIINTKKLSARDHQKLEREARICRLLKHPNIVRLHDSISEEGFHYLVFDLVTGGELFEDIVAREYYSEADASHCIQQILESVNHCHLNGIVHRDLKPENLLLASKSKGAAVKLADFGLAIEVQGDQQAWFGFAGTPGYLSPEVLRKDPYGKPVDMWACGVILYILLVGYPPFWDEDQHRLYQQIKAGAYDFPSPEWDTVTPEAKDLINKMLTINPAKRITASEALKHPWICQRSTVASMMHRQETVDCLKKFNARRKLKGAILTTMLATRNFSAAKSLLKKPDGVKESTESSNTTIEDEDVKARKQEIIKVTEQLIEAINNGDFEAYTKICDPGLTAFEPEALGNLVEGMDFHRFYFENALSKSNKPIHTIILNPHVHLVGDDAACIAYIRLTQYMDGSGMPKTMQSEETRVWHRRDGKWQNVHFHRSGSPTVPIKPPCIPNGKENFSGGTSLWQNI

Row | remaining activity at 0.5 µM (PDPK1; PDPK1, inhibitor at 500 nM) | remaining activity at 0.5 µM (AXL; AXL, inhibitor at 500 nM) | remaining activity at 0.5 µM (STK11; STK11, inhibitor at 500 nM) | remaining activity at 0.5 µM (CAMK2D; CAMK2D, inhibitor at 500 nM) | remaining activity at 0.5 µM (AKT1; AKT1, inhibitor at 500 nM) | IC50 (CAMK2D; CAMK2D, inferred from test at 500 nM (FIG. 1)) | Compound | remaining activity at 0.5 µM (PDPK1) | remaining activity at 0.5 µM (AXL) | remaining activity at 0.5 µM (STK11) | remaining activity at 0.5 µM (CAMK2D) | remaining activity at 0.5 µM (AKT1)
1 | 0.5% | 35.4% | 88.7% | 2% | 19.6% |  | COC1C(N(C)C(=O)C(N)Cc2c[nH]cn2)CC2OC1(C)n1c3ccccc3c3c4c(c5c6ccccc6n2c5c31)C(=O)NC4 (stereo not drawn) [Compound 1] |  |  |  |  | 
2 | 81% | 100% | 106% | 16.1% | 97.6% | < 500 nM | COC1C(N(C)C(=O)C(N)Cc2cn(C(=O)OC(C)(C)C)c3ccccc23)CC2OC1(C)n1c3ccccc3c3c4c(c5c6ccccc6n2c5c31)C(=O)NC4 (stereo not drawn) [Compound 2] |  |  |  |  | 
3 | 13.3% | 77.2% | 113% | 6.7% | 79.6% |  | COC1C(N(C)C(=O)C(N)Cc2ccc(OC(C)(C)C)cc2)CC2OC1(C)n1c3ccccc3c3c4c(c5c6ccccc6n2c5c31)C(=O)NC4 (stereo not drawn) [Compound 4] |  |  |  |  | 
4 | 2% | 60.3% | 102% | 10.1% | 66.8% |  | COC1C(N(C)C(=O)C(N)Cc2ccc(O)cc2)CC2OC1(C)n1c3ccccc3c3c4c(c5c6ccccc6n2c5c31)C(=O)NC4 (stereo not drawn) [Compound 5] |  |  |  |  | 
5 | 3.4% | 60.9% | 104% | 12.7% | 67.5% |  | COC1C(N(C)C(=O)C(N)CCC(=O)OC(C)(C)C)CC2OC1(C)n1c3ccccc3c3c4c(c5c6ccccc6n2c5c31)C(=O)NC4 (stereo not drawn) [Compound 6] |  |  |  |  | 
6 | 0.5% | 26.8% | 79.9% | 2.3% | 31.5% |  | COC1C(N(C)C(=O)C(N)CCC(=O)O)CC2OC1(C)n1c3ccccc3c3c4c(c5c6ccccc6n2c5c31)C(=O)NC4 (stereo not drawn) [Compound 7] |  |  |  |  | 
7 |  |  |  |  |  |  | COC1C(N(C)CCOc2cccc([N+](=O)[O-])c2)CC2OC1(C)n1c3ccccc3c3c4c(c5c6ccccc6n2c5c31)C(=O)NC4 (stereo not drawn) [Compound 8] | 4.7% | 46.3% | 101% | 0.3% | 52.3%
8 | 2.7% | 37.6% | 91.9% | 1.1% | 46.9% |  | COC1C(N(C)Cc2ccc(-c3ccccc3)cc2)CC2OC1(C)n1c3ccccc3c3c4c(c5c6ccccc6n2c5c31)C(=O)NC4 (stereo not drawn) [Compound 9] |  |  |  |  | 

Row | Compound | remaining activity at 0.5 µM (PDPK1; PDPK1, inhibitor at 500 nM) | remaining activity at 0.5 µM (AXL; AXL, inhibitor at 500 nM) | remaining activity at 0.5 µM (STK11; STK11, inhibitor at 500 nM) | remaining activity at 0.5 µM (CAMK2D; CAMK2D, inhibitor at 500 nM) | remaining activity at 0.5 µM (AKT1; AKT1, inhibitor at 500 nM) | IC50 (CAMK2D; CAMK2D, inferred from test at 500 nM (FIG. 1)) | remaining activity at 0.5 µM (PDPK1) | remaining activity at 0.5 µM (AXL) | remaining activity at 0.5 µM (STK11) | remaining activity at 0.5 µM (CAMK2D) | remaining activity at 0.5 µM (AKT1)
9 | CN[C@@H]1C[C@H]2O[C@@](C)([C@@H]1OC)n1c3ccccc3c3c4c(c5c6ccccc6n2c5c31)C(=O)NC4 [STU, staurosporine, reference compound] | -1.8% |  |  |  |  |  |  | 8.8% |  | 0.4% | 3.8%
